According to US12459914B2, “Compounds and compositions for the treatment of tumors” (FONDAZIONE ISTITUTO ITALIANO DI TECNOLOGIA, priority 2019, dated 2025):
Read-outs that look alike come from different tables or passages of the source.

Legend:
[1] = tested on: BxPC-3 cells; test: Cell viability assay (CellTiter Glo); type: cell-based; settings: Homo sapiens, 72 h
[2] = tested on: BxPC-3 cells; test: Association with olaparib (given alone or in combination), cell viability / cytotoxicity; type: cell-based; settings: olaparib 10 μM, 72 h
Experimental: BxPC-3 cells were grown in RPMI 1640 containing 10% FBS, 100 U/ml penicillin/streptomycin, 2 mM glutamine. All media and supplements were from Sigma-Aldrich. Cultures were routinely tested for Mycoplasma contamination. Treatments (Olaparib and BRCA2-Rad51 disruptors) were administered in culture medium supplemented with 0.6% DMSO. The same amount of DMSO was added to the control, untreated cultures.
Cell viability was assessed by CellTiter Glo, Luminescent Cell Viability Assay. Briefly, BxPC-3 cells (1×10^4/well) were plated in white 96-well plates with clear bottom and treated for 72 h with olaparib (10 μM) or with the BRCA2-Rad51 disruptors, given alone or in combination. After treatments, the plate was allowed to equilibrate at room temperature for 30 min and the CellTiter-Glo reactive was directly added to each well. The plate was kept on a shaker for 2 min to induce cell lysis and its luminescence was measured by using a Fluoroskan Ascent FL reader (Labsystems) using manufacturer's instructions.
Cell death was assessed by applying the CellTox™ Green Cytotoxicity assay (Promega). Briefly, BxPC-3 (1×10^4/well) were plated in black 96-well plates with clear bottom and treated for 72 h with olaparib (10 μM) or with the BRCA2-Rad51 disruptors, given alone or in combination. At the end of treatment, the CellTox™ dye was added to cell cultures and the green fluorescence signal, which is produced by the binding interaction with dead cell DNA, was measured following the manufacturer's instructions. The fluorescence signal was detected using the EnSpire 2300 Multilabel Reader (Perkin Elmer); for each sample, the obtained signal was normalized on the number of viable cells, detected by the CellTiterGlo reagent.

[3] = Pharmacokinetic studies in mice, plasma levels by LC/MS-MS; type: in vivo, C57B6/J mice; settings: for half-life: read-out: t1/2 (calc)
Experimental: Male C57B6/J mice, 8 weeks old were used (Charles River). All procedures were performed in accordance with the Ethical Guidelines of European Communities Council (Directive 2010/63/EU of 22 Sep. 2010) and accepted by the Italian Ministry of Health. All efforts were made to minimize animal suffering and to use the minimal number of animals required to produce reliable results, according to the “3Rs concept”. Animals were group-housed in ventilated cages and had free access to food and water. They were maintained under a 12-hour light/dark cycle (lights on at 8:00 am) at controlled temperature (21° C.±1° C.) and relative humidity (55%±10%).
Compound d.12 was administered orally (PO), intraperitoneally (IP) and intravenously (IV) to C57B6/J male mice at 2 mg/kg/10 ml, 20 mg/kg/10 ml and 2 mg/kg/5 ml, respectively. Vehicle was composed by PEG400/Tween 80/Saline solution at 10/10/80% in volume, respectively for PO and IV administration. For IP administration, the same vehicle was used with the addition of 10% DMSO in final volume. Three animals per dose were treated. Blood samples at 0, 15, 30, 60, 120, 240, and 480 min after administration were collected for PO and IP arms. Blood samples at 0, 5, 15, 30, 60, 120 and 240 min after administration were collected for IV arm. Plasma was separated from blood by centrifugation for 15 min at 1500 rpm a 4° C., collected in a eppendorf tube and frozen (−80° C.). Control animals treated with vehicle only were also included in the experimental protocol.
Plasma samples were centrifuged at 21.100×g for 15 min at 4° C. An aliquot of each plasma sample was extracted (1:3) with cold CH3CN containing 200 nM of d.48 as internal standard being a close analogue of the parent compound. A calibration curve was prepared in naïve mouse plasma over a 1 nM-10 μM range. Three quality control samples were prepared by spiking the parent compound in naïve mouse plasma to 20, 200 and 2000 nM as final concentrations. The calibrators and quality control samples were extracted (1:3) with the same extraction solution as the plasma samples. The plasma samples, calibrators and quality control samples were centrifuged at 3.270×g for 15 min at 4° C. The supernatants were further diluted (1:1) with H2O, and analyzed by LC/MS-MS on a Waters ACQUITY UPLC/MS TQD system consisting of a Triple Quadrupole Detector (TQD) Mass Spectrometer equipped with an Electrospray Ionization interface and a Photodiode Array e, Detector from Waters Inc. (Milford, MA, USA). Electrospray ionization was applied in positive mode. Compound-dependent parameters as MRM transitions and collision energy were developed for the parent compound and the internal standard. The analyses were run on an ACQUITY UPLC BEH C18 (50×2.1 mmID, particle size 1.7 μm) with a VanGuard BEH C18 pre-column (5×2.1 mmID, particle size 1.7 μm) at 40° C., using H2O+0.1% HCOOH (A) and CH3CN+0.1% HCOOH (B) as mobile phase at 0.5 mL/min. A linear gradient was applied starting at 40% B with an initial hold for 0.2 min, then 40-100% B in 2 min, followed by a hold for 0.1 min at 100% B. All samples (plasma samples, calibrators and quality controls) were quantified by MRM peak area response factor in order to determine the levels of the parent compound in plasma. The plasma concentrations versus time were plotted and the profiles were fitted using PK Solutions Excel Application (Summit Research Service, USA) in order to determine the pharmacokinetic parameters. The results are reported in Tables 2 and 3 and in FIGS. 1, 2 and 3.

[4] = male, C57B6/J, mouse, plasma, mice, IP 20 mg/kg
[5] = male, C57B6/J, mouse, plasma, mice, IV 2 mg/kg
[6] = male, C57B6/J, mouse, plasma, mice, PO 2 mg/kg
[7] = male, C57B6/J, mouse plasma, IV 2 mg/kg, read-out: Average conc.
[8] = male, C57B6/J, mouse plasma, PO 2 mg/kg, read-out: Average conc.

EC50 [1]: 19 µM
AUC [3, 4]: 9280 ng·h/mL
Cmax [3, 4]: 5300 ng/mL
Tmax [3, 4]: 30 min
half-life [3, 4]: 175 min
AUC [3, 5]: 899 ng·h/mL
Cmax [3, 5]: 973 ng/mL
Tmax [3, 5]: 5 min
clearance ([3]; male, C57B6/J, mouse, plasma, mice, IV 2 mg/kg, read-out: CL (calc)): 33 mL/min/kg
Vd ([3]; male, C57B6/J, mouse, plasma, mice, IV 2 mg/kg, read-out: VD (calc)): 2.2 L/kg
half-life [3, 5]: 47 min
AUC [3, 6]: 100 ng·h/mL
Cmax [3, 6]: 76 ng/mL
Tmax [3, 6]: 30 min
half-life [3, 6]: 281 min
concentration at 5 min ([3]; male, C57B6/J, mouse plasma, IV 2 mg/kg, 5 min, read-out: Average conc.): 973 ng/mL
concentration at 15 min [3, 7]: 622 ng/mL
concentration at 30 min [3, 7]: 515 ng/mL
concentration at 60 min [3, 7]: 337 ng/mL
concentration at 120 min [3, 7]: 146 ng/mL
concentration at 240 min [3, 7]: 23 ng/mL
concentration at 0 min ([3]; male, C57B6/J, mouse plasma, PO 2 mg/kg, 0 min, read-out: Average conc.): 0 ng/mL
concentration at 15 min [3, 8]: 42 ng/mL
concentration at 30 min [3, 8]: 76 ng/mL
concentration at 60 min [3, 8]: 30 ng/mL
concentration at 120 min [3, 8]: 21 ng/mL
concentration at 240 min [3, 8]: 7 ng/mL
concentration at 480 min ([3]; male, C57B6/J, mouse plasma, PO 2 mg/kg, 480 min, read-out: Average conc.): 4 ng/mL
F ([3]; mice, 2 mg/kg): 11%
CL (calc) ([3]; mice, IP 20 mg/kg): 27 mL/min/kg
VD (calc) ([3]; mice, IP 20 mg/kg): 6.701 L/kg
CL (calc) ([3]; mice, PO 2 mg/kg): 222 mL/min/kg
VD (calc) ([3]; mice, PO 2 mg/kg): 90.009 L/kg
Compound: CCC(=O)N1N=C(c2c(-c3ccccc3)c3cc(Cl)ccc3[nH]c2=O)CC1c1ccc(OC)cc1 (stereo not shown) [d.12, 6-chloro-3-[3-(4-methoxyphenyl)-2-propanoyl-3,4-dihydropyrazol-5-yl]-4-phenyl-1H-quinolin-2-one]
Olaparib Assoc. [2]: synergy
